Measurements published in US10954269B2, “Anti-inflammatory tripeptides” (Dr. August Wolff Gmbh & Co. KG Arzneimittel, priority 2013, dated 2021).

Assays:
Conditions in all cases: substance 10^−9M
[1] = tested on: primary human T-cells; experiment: Cytokine secretion on protein level in activated primary human T-cells (13-plex FACS / Luminex, supernatant); type: cell-based
In short: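 Primary T-cells from peripheral blood of healthy volunteers, or HaCaT cells, were activated with PMA/Ionomycin or IFN-γ for 48 h and treated with tripeptides. Supernatants were collected 48 h and 72 h after stimulation and cytokines (IL-1, IL-2, IL-6, IL-12p70, IL-17, IFN-γ, TNF-α) were measured by 13-plex FACS.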

[2] = tested on: primary murine T-cells; experiment: Cytokine secretion on protein level in activated primary murine T-cells (13-plex FACS / Luminex, supernatant); type: cell-based, C57BL/6 mice
In short: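 T-cells from secondary lymphatic organs of naïve C57BL/6 mice, stimulated with PMA/Ionomycin or IFN-γ; supernatant cytokines measured by 13-plex FACS 48 h and 72 h after stimulation. In another run, PMA/Ionomycin-stimulated cells received compounds at 10^−7, 10^−9 and 10^−11 M, with IFN-γ, IL-17 and IL-10 measured by Luminex.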

[3] = tested on: human keratinocyte cell line (HaCaT); experiment: Cytokine secretion on protein level in activated human keratinocyte cell line HaCaT (13-plex FACS / Luminex, supernatant); type: cell-based
In short: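 Stimulus: PMA/Ionomycin or IFN-γ, 48 h; cells: HaCaT or human peripheral-blood T-cells; tripeptide treatment; readout: supernatant cytokines via 13-plex FACS or Luminex, 48–72 h post-stimulation.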

[4] = primary human T-cells stimulated with IFN-γ
[5] = primary human T-cells stimulated with PBS
[6] = primary human T-cells stimulated with PMA/Ionomycin
[7] = primary murine T-cells stimulated with IFN-γ
[8] = primary murine T-cells stimulated with PBS
[9] = primary murine T-cells stimulated with PMA/Ionomycin
[10] = HaCaT stimulated with PMA/Ionomycin

COc1c(C)c2c(c(O)c1C/C=C(\C)CCC(=O)OCCN1CCOCC1)C(=O)OC2 [MMF, mycophenolate mofetil, reference compound]
IL-1 cytokine concentration [1, 4]: 0 pg/mL
IL-2 cytokine concentration [1, 4]: 0 pg/mL
IL-4 cytokine concentration [1, 4]: 0 pg/mL
IL-5 cytokine concentration [1, 4]: 0 pg/mL
IL-6 cytokine concentration [1, 4]: 62.15 pg/mL
IL-9 cytokine concentration [1, 4]: 0 pg/mL
IL-10 cytokine concentration [1, 4]: 0 pg/mL
IL-12 cytokine concentration [1, 4]: 0 pg/mL
IL-13 cytokine concentration [1, 4]: 0 pg/mL
IL-17 cytokine concentration [1, 4]: 0 pg/mL
IL-22 cytokine concentration [1, 4]: 0 pg/mL
TNF-α cytokine concentration [1, 4]: 0 pg/mL
IFN-γ cytokine concentration [1, 5]: 0 pg/mL
IL-1 cytokine concentration [1, 5]: 0 pg/mL
IL-2 cytokine concentration [1, 5]: 39.68 pg/mL
IL-4 cytokine concentration [1, 5]: 0 pg/mL
IL-5 cytokine concentration [1, 5]: 0 pg/mL
IL-6 cytokine concentration [1, 5]: 94.62 pg/mL
IL-9 cytokine concentration [1, 5]: 28.13 pg/mL
IL-10 cytokine concentration [1, 5]: 79.26 pg/mL
IL-12 cytokine concentration [1, 5]: 0 pg/mL
IL-13 cytokine concentration [1, 5]: 79.09 pg/mL
IL-17 cytokine concentration [1, 5]: 71.42 pg/mL
IL-22 cytokine concentration [1, 5]: 0 pg/mL
TNF-a cytokine concentration [1, 5]: 53.91 pg/mL
IFN-γ cytokine concentration [1, 6]: 9491.25 pg/mL
IL-1 cytokine concentration [1, 6]: 505.05 pg/mL
IL-2 cytokine concentration [1, 6]: 1498.52 pg/mL
IL-4 cytokine concentration [1, 6]: 29.49 pg/mL
IL-5 cytokine concentration [1, 6]: 309.88 pg/mL
IL-6 cytokine concentration [1, 6]: 1198.6 pg/mL
IL-9 cytokine concentration [1, 6]: 339.89 pg/mL
IL-10 cytokine concentration [1, 6]: 814.79 pg/mL
IL-12 cytokine concentration [1, 6]: 0 pg/mL
IL-13 cytokine concentration [1, 6]: 1072.09 pg/mL
IL-17 cytokine concentration [1, 6]: 1097.19 pg/mL
IL-22 cytokine concentration [1, 6]: 0 pg/mL
TNF-a cytokine concentration [1, 6]: 3987.21 pg/mL
IL-1 cytokine concentration [2, 7]: 100.02 pg/mL
IL-2 cytokine concentration [2, 7]: 79.63 pg/mL
IL-4 cytokine concentration [2, 7]: 59.48 pg/mL
IL-5 cytokine concentration [2, 7]: 254.61 pg/mL
IL-6 cytokine concentration [2, 7]: 111.95 pg/mL
IL-10 cytokine concentration [2, 7]: 936.45 pg/mL
IL-13 cytokine concentration [2, 7]: 0 pg/mL
IL-17 cytokine concentration [2, 7]: 61.58 pg/mL
IL-21 cytokine concentration [2, 7]: 0 pg/mL
IL-22 cytokine concentration [2, 7]: 55.98 pg/mL
IL-27 cytokine concentration [2, 7]: 40.8 pg/mL
TNF-α cytokine concentration [2, 7]: 33.64 pg/mL
IFN-γ cytokine concentration [2, 8]: 0 pg/mL
IL-1 cytokine concentration [2, 8]: 62.31 pg/mL
IL-2 cytokine concentration [2, 8]: 100.77 pg/mL
IL-4 cytokine concentration [2, 8]: 61.12 pg/mL
IL-5 cytokine concentration [2, 8]: 337.89 pg/mL
IL-6 cytokine concentration [2, 8]: 90.56 pg/mL
IL-10 cytokine concentration [2, 8]: 745.12 pg/mL
IL-13 cytokine concentration [2, 8]: 0 pg/mL
IL-17 cytokine concentration [2, 8]: 0 pg/mL
IL-21 cytokine concentration [2, 8]: 0 pg/mL
IL-22 cytokine concentration [2, 8]: 90.45 pg/mL
IL-27 cytokine concentration [2, 8]: 80.11 pg/mL
TNF-α cytokine concentration [2, 8]: 88.47 pg/mL
IFN-γ cytokine concentration [2, 9]: 1808.99 pg/mL
IL-1 cytokine concentration [2, 9]: 158.59 pg/mL
IL-2 cytokine concentration [2, 9]: 109.88 pg/mL
IL-4 cytokine concentration [2, 9]: 64.89 pg/mL
IL-5 cytokine concentration [2, 9]: 200.98 pg/mL
IL-6 cytokine concentration [2, 9]: 169.84 pg/mL
IL-10 cytokine concentration [2, 9]: 995.6 pg/mL
IL-13 cytokine concentration [2, 9]: 0 pg/mL
IL-17 cytokine concentration [2, 9]: 67 pg/mL
IL-21 cytokine concentration [2, 9]: 0 pg/mL
IL-22 cytokine concentration [2, 9]: 111.98 pg/mL
IL-27 cytokine concentration [2, 9]: 102.96 pg/mL
TNF-α cytokine concentration [2, 9]: 50.14 pg/mL
IL-1 cytokine concentration ([3]; HaCaT stimulated with IFN-γ): 0 pg/mL
IL-2 cytokine concentration ([3]; HaCaT stimulated with IFN-γ): 0 pg/mL
IL-4 cytokine concentration ([3]; HaCaT stimulated with IFN-γ): 33.01 pg/mL
IL-5 cytokine concentration ([3]; HaCaT stimulated with IFN-γ): 0 pg/mL
IL-6 cytokine concentration ([3]; HaCaT stimulated with IFN-γ): 239.05 pg/mL
IL-9 cytokine concentration ([3]; HaCaT stimulated with IFN-γ): 0 pg/mL
IL-10 cytokine concentration ([3]; HaCaT stimulated with IFN-γ): 0 pg/mL
IL-12 cytokine concentration ([3]; HaCaT stimulated with IFN-γ): 0 pg/mL
IL-13 cytokine concentration ([3]; HaCaT stimulated with IFN-γ): 0 pg/mL
IL-17 cytokine concentration ([3]; HaCaT stimulated with IFN-γ): 58.48 pg/mL
IL-22 cytokine concentration ([3]; HaCaT stimulated with IFN-γ): 0 pg/mL
TNF-α cytokine concentration ([3]; HaCaT stimulated with IFN-γ): 0 pg/mL
IFN-γ cytokine concentration ([3]; HaCaT stimulated with PBS): 0 pg/mL
IL-1 cytokine concentration ([3]; HaCaT stimulated with PBS): 0 pg/mL
IL-2 cytokine concentration ([3]; HaCaT stimulated with PBS): 0 pg/mL
IL-4 cytokine concentration ([3]; HaCaT stimulated with PBS): 120.89 pg/mL
IL-5 cytokine concentration ([3]; HaCaT stimulated with PBS): 0 pg/mL
IL-6 cytokine concentration ([3]; HaCaT stimulated with PBS): 39.58 pg/mL
IL-9 cytokine concentration ([3]; HaCaT stimulated with PBS): 0 pg/mL
IL-10 cytokine concentration ([3]; HaCaT stimulated with PBS): 33.26 pg/mL
IL-12 cytokine concentration ([3]; HaCaT stimulated with PBS): 0 pg/mL
IL-13 cytokine concentration ([3]; HaCaT stimulated with PBS): 0 pg/mL
IL-17 cytokine concentration ([3]; HaCaT stimulated with PBS): 0 pg/mL
IL-22 cytokine concentration ([3]; HaCaT stimulated with PBS): 0 pg/mL
TNF-α cytokine concentration ([3]; HaCaT stimulated with PBS): 0 pg/mL
IFN-γ cytokine concentration [3, 10]: 0 pg/mL
IL-1 cytokine concentration [3, 10]: 0 pg/mL
IL-2 cytokine concentration [3, 10]: 0 pg/mL
IL-4 cytokine concentration [3, 10]: 98.71 pg/mL
IL-5 cytokine concentration [3, 10]: 0 pg/mL
IL-6 cytokine concentration [3, 10]: 116.51 pg/mL
IL-9 cytokine concentration [3, 10]: 0 pg/mL
IL-10 cytokine concentration [3, 10]: 66.23 pg/mL
IL-12 cytokine concentration [3, 10]: 0 pg/mL
IL-13 cytokine concentration [3, 10]: 0 pg/mL
IL-17 cytokine concentration [3, 10]: 0 pg/mL
IL-22 cytokine concentration [3, 10]: 0 pg/mL
TNF-α cytokine concentration [3, 10]: 0 pg/mL
